Source: patent publication US20260240819A1, “KAT6 INHIBITOR METHODS AND COMBINATIONS FOR CANCER TREATMENT” (Pfizer Inc., priority 2020, published 2026)
pIC50: −log10 of the molar value. “And” between values parts separate entries of the source, which are not always exact repeats. Equal entries are not always repeated.

Assays:
ZR-75-1 cells [1] = test: Proliferation colony formation assay (SRB stain); format: cell-based; conditions: Homo sapiens, 288 h, read-out: Concentration giving 50% inhibition of proliferation; ZR-75-1, single agent, 12 days
Method: (§1) T47D, ZR-75-1, or MCF7 cells were seeded into 6-well tissue culture plates at 10% seeding confluence (100,000-150,000 cells per well). After allowing 18-24 hours for the cells to attach to the wells, growth media was aspirated and discarded and new growth media containing 0-20 μM of either COMPOUND A or COMPOUND B was added in 2-fold increments of descending concentration from 20 μM to the cells (proliferation assay). In parallel, seeded cultures with the same titration of the KAT6 inhibitors was added to the cells. 500 nM palbociclib was also added for each concentration of the KAT6 inhibitors (palbociclib recovery assay). The cultures were incubated 12-14 days and treated with these inhibitors/inhibitor combinations. Growth media containing the inhibitors was replaced on the cell cultures every 3-4 days (twice per week).
(§2) For the ZR-75-1 and MCF7 experiments, only COMPOUND A was tested. For the single agent treated ZR-75-1 cultures the vehicle treated cultures were >90% confluent after 12 days of treatment. These cultures were SRB stained, scanned, and destained/measured as described above. […] After 22 days of recovery, the ZR-75-1 cultures that had been treated with single agent 500 nM palbociclib were >90% confluent and these palbociclib recovery assay cultures were SRB stained, scanned, and destained/measured as described above.
Cells were plated at low density into 6-well culture dishes and allowed to attach overnight at 37° C., 5% CO2. […] At the end of treatment, cells were washed once with phosphate-buffered saline and were fixed and stained with SRB for visualization followed by quantification. […] Wells were fixed and stained with SRB for visualization followed by quantification. To quantify the stain, stained cells were dissolved in 2 mL of 10 mM Tris-HCl, pH 7.5 and shaken for 10 min on a shaker. Samples were then diluted with 10 mM Tris-HCl, pH 7.5, transferred to a 96-well microtiter plate in a volume of 100 μL and read on SpetraMax at 565 nm.

T47D cells [2] = test: Palbociclib recovery colony formation assay (SRB stain); format: cell-based; conditions: Homo sapiens, read-out: KAT6 inhibitor concentration giving 50% inhibition of recovery, with 500 nM palbociclib 14 days, then 14 days recovery
Method: as §1
For the T47D cultures arrested with 500 nM palbociclib and treated with increasing concentration of the KAT6 inhibitors (palbociclib recovery assay), after 14 days of combination treatment the growth media containing the inhibitors was aspirated from the cultures and discarded. […] After allowing 14 days for the cultures to recover, those that recovered from single agent 500 nM palbociclib arrest were >90% confluent and all the palbociclib recovery cultures were SRB stained, scanned, and destained/measured as described above. […]

T47D cells [3] = test: Proliferation colony formation assay (SRB stain); format: cell-based; conditions: Homo sapiens, 288 h, single agent, 12 days, read-out: Concentration giving 50% proliferation inhibition
Method: as §1
For the KAT6 inhibitor treated T47D cultures (proliferation assay), after 12 days the vehicle (DMSO) treated cultures were >90% confluent and the cell cultures were SRB stained as described in Example 3. The stained 6-well plates were scanned using an Epson Perfection V600 Photo Scanner and Epson Scan version 3.9.2.0 software. To quantitate SRB staining in each 6-well culture, the cultures were destained with 2 mL 10 mM Tris pH 7.5 per well and the absorbance at 565 nm (O.D. 565) of the released stain was measured using a SpectraMax Plus plate reader and SoftMaxPro 5.4.3 software. Inhibition of T47D cell proliferation by both COMPOUND A and COMPOUND B were equivalent with 50% proliferation inhibition observed with 10 μM of the KAT6 inhibitors (FIGS. 8A and 8C).
Cells were plated at low density into 6-well culture dishes and allowed to attach overnight at 37° C., 5% CO2. The next day, in parallel to the proliferation set, palbociclib was added at a final concentration of […] to another set of plates, which served as the set for palbociclib recovery. To both proliferation and palbociclib recovery plates, DMSO or KAT6 inhibitor was added into each well at increasing doses. Medium and KAT6 inhibitor were refreshed twice a week. Cells were cultured for about two weeks of drug treatment until the DMSO-treated wells reached confluency. At the end of treatment, cells were washed once with phosphate-buffered saline and were fixed and stained with SRB for visualization followed by quantification. […] Wells were fixed and stained with SRB for visualization followed by quantification. To quantify the stain, stained cells were dissolved in 2 mL of 10 mM Tris-HCl, pH 7.5 and shaken for 10 min on a shaker. Samples were then diluted with 10 mM Tris-HCl, pH 7.5, transferred to a 96-well microtiter plate in a volume of 100 μL and read on SpetraMax at 565 nm.

[4] = system: ESR1 (encoding estrogen receptor alpha (ERα)) expression in T47D cells; test: GeneChip gene expression analysis; format: cell-based; conditions: 10 μM, 6 days
Method: T47D cell lines having either the Tet-ON KAT6A_5, KAT6A_6, or shRenilla shRNAs were treated with 0.2 μg/mL doxycycline to induce expression of the respective shRNA in the T47D cells and initiate knockdown of KAT6A (KAT6A_5 and KAT6A_6 cells only). The cells were treated with doxycycline for 4 days, which provided suffient time for KAT6A protein depletion in the cells. On day 3 of doxycycline treatment, the KAT6A_5, KAT6A_6, and shRenilla T47D cells were suspended and seeded into 6-well tissue cultures plates at 10% confluence. Parental T47D cells (no shRNA) were also seeded into 6-well tissue culture plates at 10% confluence. On day 4 after shRNA induction, half the T47D KAT6A_5, KAT6A_6, and shRenilla cultures were treated with 0.5 μM palbociclib and half the cultures were kept untreated. All cultures were kept in growth media containing 0.2 μg/mL doxycycline to maintain KAT6A knockdown in the cells throughout the experiment. The parental T47D cells were split into four groups as follows: (1) vehicle treated (DMSO), (2) vehicle+0.5 μM palbociclib, (3) 10 μM COMPOUND A treated, and (4) 10 μM COMPOUND A+0.5 μM palbociclib. The parental T47D and T47D-shRNA cell lines were subsequently treated for 6 days and the growth media, containing the inhibitors represented the different growth conditions described above, was replaced once on day 3 of treatment. […]

MCF7 cells [5] = test: Proliferation colony formation assay (SRB stain); format: cell-based; conditions: Homo sapiens, 240 h, read-out: Concentration giving 50% inhibition of proliferation; MCF7, single agent, 10 days
Method: as §1
(§3) The MCF7 cells were tested with COMPOUND A. For the single agent treated MCF7 cultures, the vehicle treated cultures were >90% confluent after 10 days of treatment. These cultures were SRB stained, scanned, and destained/measured as described above. […] After 10 days of recovery, the MCF7 cultures that had been treated with single agent 500 nM palbociclib were >90% confluent and these palbociclib recovery assay cultures were SRB stained, scanned, and destained/measured as described above.

ZR-75-1 cells [6] = test: Palbociclib recovery colony formation assay (SRB stain); format: cell-based; conditions: Homo sapiens, read-out: Concentration giving 50% inhibition of recovery; ZR-75-1, with 500 nM palbociclib 14 days, then 22 days recovery
Method: as §1, §2

MCF7 cells [7] = test: as above; format: cell-based; conditions: Homo sapiens, read-out: Concentration giving 50% inhibition of recovery; MCF7, with 500 nM palbociclib 14 days, then 10 days recovery
Method: as §1, §3

[8] = Bodyweight and health monitoring, PDX ST941 study; format: in vivo, female athymic nude mice; conditions: relative to day 0
Method: (§4) Combination studies with palbociclib, fulvestrant and the KAT6 inhibitor, Compound E (KAT6i), were performed in two ER+ breast cancer PDX models: ST340 and ST941. ST340 was wildtype for ESR1. […] Both studies were conducted by XenoSTART (San Antonio, Texas), where 6-12 week-old female athymic nude mice (JAX, stock #007850) were subcutaneously implanted with ~70 mg tumor fragments. Animals were supplemented with exogenous estradiol ad libitum via drinking water throughout the duration of the studies. Tumor measurements and animal weights were captured twice per week, and animals were stratified and enrolled into the study when the mean tumor volume (TV, formula: width^2×length×0.5) reached 150-300 mm^3.
(§5) Each study contained eight treatment groups of n=10 animals per group. The groups were as follows: 1) Vehicle (5% DMSO/40% PEG300/55% 1×PBS), 2) Compound E, 3) palbociclib, 4) fulvestrant, 5) palbociclib+fulvestrant, 6) Compound E +fulvestrant, 7) Compound E+palbociclib, and 8) Compound E+palbociclib+fulvestrant. Animals remained on study and were continued on treatments until the mean tumor volume of each group reached ~1500 mm^3. At that point, the final dose was administered, animals were sacrificed, and terminal samples were collected. Blood microsamples were collected from each group for pharmacokinetics (PK) analysis at 0, 3, and 7 hrs (n=3/timepoint) on day 14 of dosing and again on the terminal day of dosing.
(§6) Analysis of covariance (ANCOVA) was used to determine statistical significance when comparing percent TGI between groups. Changes in bodyweights were calculated in relation to starting bodyweights at study initiation (day 0 of treatment).

[9] = system: ER+ breast cancer PDX model ST340; test: PDX tumor growth inhibition study; format: in vivo, female athymic nude mice; conditions: doses per Table 7; for % TGI Delta: PDX ST340, day 21, compared to Vehicle; for Mean ± SEM (day 21): PDX ST340, tumor volume (mm^3)
Method: as §4, §5, §6

[10] = Bodyweight and health monitoring, PDX ST340 study; format: in vivo, female athymic nude mice; conditions: relative to day 0
Method: as §4, §5, §6

| Compound | pIC50 (ZR-75-1 cells [1]) | pIC50 (T47D cells [2]) | pIC50 (T47D cells [3]) | ESR1 expression and downstream ERα regulated genes [4] | pIC50 (MCF7 cells [5]) | pIC50 (ZR-75-1 cells [6]) | pIC50 (MCF7 cells [7]) | Day 17 mean change in bodyweight [8] | Maximum mean bodyweight loss [8] | % TGI Delta [9] | % TGI Delta ([9]; listed as fulvestrant) | Mean ± SEM (day 21) [9] | Day 21 mean change in bodyweight [10] | Maximum mean bodyweight loss [10] |
| --- | --- | --- | --- | --- | --- | --- | --- | --- | --- | --- | --- | --- | --- | --- |
| Cc1cc(-c2ccccc2)cc(C(=O)NNS(=O)(=O)c2ccccc2)c1F [COMPOUND A, N′-(4-fluoro-5-methyl-[1,1′-biphenyl]-3-carbonyl)benzenesulfonohydrazide] | 6.52 | 5.30 | 5.00 | significant downregulation | < 4.70 | 5.60 | 5.30 |  |  |  |  |  |  |  |
| C[C@]12CC[C@@H]3c4ccc(O)cc4C[C@@H](CCCCCCCCC[S+]([O-])CCCC(F)(F)C(F)(F)F)[C@H]3[C@@H]1CC[C@@H]2O (stereo partly shown) [Fulvestrant] |  |  |  |  |  |  |  | 0% | −5% | 21.3% | ~ 20% | 1370 ± 195 | +5% | −2% |
| COc1ccccc1S(=O)(=O)Nc1noc2cc(Cn3cccn3)cc(OC)c12 [Compound E, 2-methoxy-N-{4-methoxy-6-[(1H-pyrazol-1-yl)methyl]-1,2-benzoxazol-3-yl}benzene-1-sulfonamide] |  |  |  |  |  |  |  | +5% | −4% | 55% and 55.4% |  | 882 ± 86 | −2% | −4% |
| O=C(NNS(=O)(=O)c1ccccc1)c1cc(-c2ccccc2)cc(Cl)c1F [COMPOUND B, N′-(5-chloro-4-fluoro-[1,1′-biphenyl]-3-carbonyl)benzenesulfonohydrazide] |  | 5.60 | 5.00 |  |  |  |  |  |  |  |  |  |  |  |
